For 22 molecules, IC50 results are on record in patent publication US9611267B2, “Substituted tricyclic compounds as FGFR inhibitors” (Incyte Corporation, priority 2012, dated 2017).

Holding throughout (type): biochemical
The target of assay [1] is FGFR1 (Homo sapiens (Human), UniProt P11362). Kind of assay: FGFR enzymatic assay (FRET peptide phosphorylation), FGFR1. To be noted: FGFR1 enzyme 0.02 nM, ATP 210 μM. As for the experimental part:
(§1) The inhibitor potency of the exemplified compounds was measured in an enzyme assay that measures peptide phosphorylation using FRET measurements to detect product formation. Inhibitors were serially diluted in DMSO and a volume of 0.5 μL was transferred to the wells of a 384-well plate. For FGFR3, a 10 μL volume of FGFR3 enzyme (Millipore) diluted in assay buffer (50 mM HEPES, 10 mM MgCl2, 1 mM EGTA, 0.01% Tween-20, 5 mM DTT, pH 7.5) was added to the plate and pre-incubated for 5-10 minutes. Appropriate controls (enzyme blank and enzyme with no inhibitor) were included on the plate. […] The plate was incubated at 25° C. for 1 hr. […] The plate was allowed to equilibrate for ˜1 hr before scanning the wells on a PheraStar plate reader (BMG Labtech).
(§2) The enzymes were purchased from Millipore or Invitrogen.
(§3) GraphPad prism3 was used to analyze the data. The IC50 values were derived by fitting the data to the equation for a sigmoidal dose-response with a variable slope. Y=Bottom+(Top−Bottom)/(1+10^((LogIC50−X)*HillSlope)) where X is the logarithm of concentration and Y is the response.

The target in assay [2] is FGFR2 (Homo sapiens (Human), UniProt P21802). Kind of assay: FGFR enzymatic assay (FRET peptide phosphorylation), FGFR2. Conditions: FGFR2 enzyme 0.01 nM, ATP 100 μM. As for the experimental part:
as §1, §2, §3

Assay [3] deals with FGFR3 (Homo sapiens (Human), UniProt P22607). The experiment in a line: FGFR enzymatic assay (FRET peptide phosphorylation), FGFR3. Conditions: FGFR3 enzyme (Millipore), ATP 140 μM. As for the experimental part:
as §1, §3

Bounds are passed on as bounds.

FGFR1, sequence (P11362 22-822): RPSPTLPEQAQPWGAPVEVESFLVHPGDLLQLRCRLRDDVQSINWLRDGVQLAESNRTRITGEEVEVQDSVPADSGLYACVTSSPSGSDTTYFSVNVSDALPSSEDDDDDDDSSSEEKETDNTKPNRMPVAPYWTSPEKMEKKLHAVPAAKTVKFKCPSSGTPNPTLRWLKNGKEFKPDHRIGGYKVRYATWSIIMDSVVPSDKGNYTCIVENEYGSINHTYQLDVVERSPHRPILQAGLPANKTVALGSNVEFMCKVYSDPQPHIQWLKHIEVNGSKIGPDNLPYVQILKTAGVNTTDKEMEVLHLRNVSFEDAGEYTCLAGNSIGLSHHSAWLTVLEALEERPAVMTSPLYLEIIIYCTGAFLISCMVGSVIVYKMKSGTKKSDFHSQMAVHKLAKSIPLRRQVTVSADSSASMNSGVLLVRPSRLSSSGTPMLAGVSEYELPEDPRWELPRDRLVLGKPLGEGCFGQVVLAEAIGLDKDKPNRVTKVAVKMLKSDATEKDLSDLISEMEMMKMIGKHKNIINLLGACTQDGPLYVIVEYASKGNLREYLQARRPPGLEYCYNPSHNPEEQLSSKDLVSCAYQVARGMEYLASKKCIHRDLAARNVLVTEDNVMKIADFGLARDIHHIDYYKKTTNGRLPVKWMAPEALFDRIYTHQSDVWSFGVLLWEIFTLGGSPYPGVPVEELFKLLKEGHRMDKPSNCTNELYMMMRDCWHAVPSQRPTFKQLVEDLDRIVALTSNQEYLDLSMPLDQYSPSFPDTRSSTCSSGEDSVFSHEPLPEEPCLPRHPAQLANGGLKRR
FGFR3, sequence (P22607 23-806): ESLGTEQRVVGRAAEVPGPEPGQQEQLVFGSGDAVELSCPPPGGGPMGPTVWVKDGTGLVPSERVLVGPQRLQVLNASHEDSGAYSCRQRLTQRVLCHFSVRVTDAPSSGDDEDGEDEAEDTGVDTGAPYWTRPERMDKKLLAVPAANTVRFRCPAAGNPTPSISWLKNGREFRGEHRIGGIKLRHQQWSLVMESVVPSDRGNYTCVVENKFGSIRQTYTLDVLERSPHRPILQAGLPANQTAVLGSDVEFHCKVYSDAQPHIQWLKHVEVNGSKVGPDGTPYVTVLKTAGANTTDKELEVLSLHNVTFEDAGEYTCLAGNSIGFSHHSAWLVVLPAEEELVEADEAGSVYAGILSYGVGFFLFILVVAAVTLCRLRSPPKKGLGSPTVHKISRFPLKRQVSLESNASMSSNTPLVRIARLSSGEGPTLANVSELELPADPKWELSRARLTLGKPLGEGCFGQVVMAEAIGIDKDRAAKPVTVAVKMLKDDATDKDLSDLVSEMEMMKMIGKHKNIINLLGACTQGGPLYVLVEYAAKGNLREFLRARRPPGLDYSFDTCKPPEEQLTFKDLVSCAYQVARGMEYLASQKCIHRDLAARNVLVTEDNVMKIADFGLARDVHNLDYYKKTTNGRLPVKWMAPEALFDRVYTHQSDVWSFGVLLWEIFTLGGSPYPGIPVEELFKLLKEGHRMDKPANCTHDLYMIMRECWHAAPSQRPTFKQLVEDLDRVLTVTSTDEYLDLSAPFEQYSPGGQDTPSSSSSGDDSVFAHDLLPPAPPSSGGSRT
FGFR2, sequence (P21802 22-821): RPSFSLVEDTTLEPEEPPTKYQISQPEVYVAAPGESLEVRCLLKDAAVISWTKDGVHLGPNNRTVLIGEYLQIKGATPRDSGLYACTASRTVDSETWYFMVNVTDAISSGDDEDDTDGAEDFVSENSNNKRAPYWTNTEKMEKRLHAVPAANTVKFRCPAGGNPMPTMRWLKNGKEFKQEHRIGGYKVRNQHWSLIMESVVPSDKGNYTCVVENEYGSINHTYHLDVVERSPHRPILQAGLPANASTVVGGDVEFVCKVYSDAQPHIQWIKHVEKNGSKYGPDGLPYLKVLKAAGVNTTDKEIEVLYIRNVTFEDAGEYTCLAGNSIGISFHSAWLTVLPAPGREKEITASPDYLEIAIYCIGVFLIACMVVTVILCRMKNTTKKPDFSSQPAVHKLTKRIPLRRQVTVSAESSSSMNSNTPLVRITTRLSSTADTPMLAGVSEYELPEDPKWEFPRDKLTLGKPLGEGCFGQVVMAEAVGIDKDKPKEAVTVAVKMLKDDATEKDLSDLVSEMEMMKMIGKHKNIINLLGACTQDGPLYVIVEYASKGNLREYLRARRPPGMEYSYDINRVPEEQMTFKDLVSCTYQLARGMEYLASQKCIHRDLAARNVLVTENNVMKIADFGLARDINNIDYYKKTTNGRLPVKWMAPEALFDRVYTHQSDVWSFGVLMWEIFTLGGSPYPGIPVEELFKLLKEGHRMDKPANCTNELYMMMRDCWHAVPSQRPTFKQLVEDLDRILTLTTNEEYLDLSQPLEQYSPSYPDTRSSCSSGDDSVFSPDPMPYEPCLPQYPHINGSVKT

The IC50 is the concentration that gives 50% inhibition. A higher IC50 goes with weaker potency. On to `COc1cc(OC)c(F)c(N2Cc3cnc4[nH]ccc4c3N(c3ccccc3)C2=O)c1F` [Example 47, 3-(2,6-difluoro-3,5-dimethoxyphenyl)-1-phenyl-1,3,4,7-tetrahydro-2H-pyrrolo[3′,2′:5,6]pyrido[4,3-d]pyrimidin-2-one], for which the IC50 in assay [1], in assay [2] and in assay [3] was below 100 nM each time.

Consider `COc1cc(OC)c(F)c(N2Cc3cnc4c(c3N(C3CC3)C2=O)CC(=O)N4)c1F` [Example 48, 1-Cyclopropyl-3-(2,6-difluoro-3,5-dimethoxyphenyl)-3,4,7,9-tetrahydro-1H-pyrrolo[3′,2′:5,6]pyrido[4,3-d]pyrimidine-2,8-dione], for which the IC50 in assay [1], in assay [2] and in assay [3] was below 100 nM in each case.

On to `CCN1C(=O)N(c2c(F)c(OC)cc(OC)c2F)Cc2cnc3c(c21)CC(=O)N3` [Example 49, 3-(2,6-Difluoro-3,5-dimethoxyphenyl)-1-ethyl-3,4,7,9-tetrahydro-1H-pyrrolo[3′,2′:5,6]pyrido[4,3-d]pyrimidine-2,8-dione], for which the IC50 in assay [1], in assay [2] and in assay [3] was below 100 nM each time.

For `COc1cc(OC)c(F)c(N2Cc3cnc4c(c3N(CC3CC3)C2=O)CC(=O)N4)c1F` [Example 50, 1-(Cyclopropylmethyl)-3-(2,6-difluoro-3,5-dimethoxyphenyl)-3,4,7,9-tetrahydro-1H-pyrrolo[3′,2′:5,6]pyrido[4,3-d]pyrimidine-2,8-dione], the IC50 in assay [1], in assay [2] and in assay [3] was below 100 nM throughout.

For `COc1cc(OC)c(F)c(N2Cc3cnc4[nH]ncc4c3N(C)C2=O)c1F` [Example 51, 3-(2,6-Difluoro-3,5-dimethoxyphenyl)-1-methyl-1,3,4,7-tetrahydro-2H-pyrazolo[4′,3′:5,6]pyrido[4,3-d]pyrimidin-2-one], the IC50 in assay [1], in assay [2] and in assay [3] was below 100 nM in each case.

`COc1cc(OC)c(F)c(N2Cc3cnc4[nH]nc(C)c4c3N(C)C2=O)c1F` [Example 52, 3-(2,6-Difluoro-3,5-dimethoxyphenyl)-1,9-dimethyl-1,3,4,7-tetrahydro-2H-pyrazolo[4′,3′:5,6]pyrido[4,3-d]pyrimidin-2-one]: the IC50 in assay [1], in assay [2] and in assay [3] was below 100 nM in each case.

In the case of `COc1cc(OC)c(F)c(N2Cc3cnc4[nH]nc(C#N)c4c3N(C)C2=O)c1F` [Example 53, 3-(2,6-Difluoro-3,5-dimethoxyphenyl)-1-methyl-2-oxo-2,3,4,7-tetrahydro-1H-pyrazolo[4′,3′:5,6]pyrido[4,3-d]pyrimidine-9-carbonitrile], the half-inhibitory concentration (IC50) in assay [1], in assay [2] and in assay [3] was below 100 nM each time.

As for `COc1cc(OC)c(F)c(N2Cc3cnc4[nH]nc(CC#N)c4c3N(C)C2=O)c1F` [Example 54, [3-(2,6-Difluoro-3,5-dimethoxyphenyl)-1-methyl-2-oxo-2,3,4,7-tetrahydro-1H-pyrazolo[4′,3′:5,6]pyrido[4,3-d]pyrimidin-9-yl]acetonitrile], the IC50 in assay [1], in assay [2] and in assay [3] was below 100 nM each time.

Regarding `COc1cc(OC)c(F)c(N2Cc3cnc4[nH]nc(C5CCN(C)CC5)c4c3N(C)C2=O)c1F` [Example 55, 3-(2,6-Difluoro-3,5-dimethoxyphenyl)-1-methyl-9-(1-methylpiperidin-4-yl)-1,3,4,7-tetrahydro-2H-pyrazolo[4′,3′:5,6]pyrido[4,3-d]pyrimidin-2-one], the IC50 in assay [1], in assay [2] and in assay [3] was below 100 nM in each case.

As for `COc1cc(OC)c(F)c(N2Cc3cnc4[nH]nc(CCO)c4c3N(C)C2=O)c1F` [Example 56, 3-(2,6-Difluoro-3,5-dimethoxyphenyl)-9-(2-hydroxyethyl)-1-methyl-1,3,4,7-tetrahydro-2H-pyrazolo[4′,3′:5,6]pyrido[4,3-d]pyrimidin-2-one], the IC50 in assay [1], in assay [2] and in assay [3] was below 100 nM in each case.

Take `CCN1C(=O)N(c2c(F)c(OC)cc(OC)c2F)Cc2cnc3[nH]ncc3c21` [Example 57, 3-(2,6-Difluoro-3,5-dimethoxyphenyl)-1-ethyl-1,3,4,7-tetrahydro-2H-pyrazolo[4′,3′:5,6]pyrido[4,3-d]pyrimidin-2-one]: the IC50 in assay [1], in assay [2] and in assay [3] was below 100 nM in each case.

In the case of `COc1cc(OC)c(F)c(N2Cc3cnc4[nH]ncc4c3N(CCO)C2=O)c1F` [Example 58, 3-(2,6-Difluoro-3,5-dimethoxyphenyl)-1-(2-hydroxyethyl)-1,3,4,7-tetrahydro-2H-pyrazolo[4′,3′:5,6]pyrido[4,3-d]pyrimidin-2-one], the IC50 in assay [1], in assay [2] and in assay [3] was below 100 nM in each case.

In the case of `COc1cc(OC)c(F)c(N2Cc3cnc4[nH]ccc4c3CC2=O)c1F` [Example 60, 7-(2,6-difluoro-3,5-dimethoxyphenyl)-3,6,7,9-tetrahydro-8H-pyrrolo[2,3-c]-2,7-naphthyridin-8-one], the IC50 in assay [1], in assay [2] and in assay [3] was below 100 nM each time.

Take `COc1cc(OC)c(F)c(N2Cc3cnc4[nH]cnc4c3N(C)C2=O)c1F` [Example 61, 7-(2,6-difluoro-3,5-dimethoxyphenyl)-9-methyl-3,6,7,9-tetrahydro-8H-imidazo[4′,5′:5,6]pyrido[4,3-d]pyrimidin-8-one]: the IC50 in assay [1], in assay [2] and in assay [3] was below 100 nM throughout.

In the case of `COc1cc(OC)c(F)c(N2Cc3cnc4[nH]ncc4c3OC2=O)c1F` [Example 62, 3-(2,6-difluoro-3,5-dimethoxyphenyl)-4,7-dihydropyrazolo[4′,3′:5,6]pyrido[3,4-e][1,3]oxazin-2(3H)-one], the half-inhibitory concentration (IC50) was 100 to 500 nM in assay [1], 100 to 500 nM in assay [2] and below 100 nM in assay [3].

With `COc1cc(OC)c(F)c(N2Cc3cnc4c(c3N(C3CCC3)C2=O)CC(=O)N4)c1F` [Example 64, 1-cyclobutyl-3-(2,6-difluoro-3,5-dimethoxyphenyl)-3,4,7,9-tetrahydro-1H-pyrrolo[3′,2′:5,6]pyrido[4,3-d]pyrimidine-2,8-dione], the IC50 in assay [1], in assay [2] and in assay [3] was below 100 nM each time.

In the case of `COc1cc(OC)c(F)c(N2Cc3cnc4c(c3N(Cc3cccc(F)c3)C2=O)CC(=O)N4)c1F` [Example 65, 3-(2,6-difluoro-3,5-dimethoxyphenyl)-1-(3-fluorobenzyl)-3,4,7,9-tetrahydro-1H-pyrrolo[3′,2′:5,6]pyrido[4,3-d]pyrimidine-2,8-dione], the IC50 in assay [1], in assay [2] and in assay [3] was below 100 nM throughout.

Regarding `COc1cc(OC)c(F)c(N2Cc3cnc4[nH]ccc4c3C3(CC3)C2=O)c1F` [Example 66, 7′-(2,6-difluoro-3,5-dimethoxyphenyl)-6′,7′-dihydrospiro[cyclopropane-1,9′-pyrrolo[2,3-c][2,7]naphthyridin]-8′(3′H)-one], the IC50 in assay [1], in assay [2] and in assay [3] was below 100 nM throughout.

In the case of `COc1cc(OC)c(F)c(N2Cc3cnc4[nH]ccc4c3C(C)(C)C2=O)c1F` [Example 67, 7-(2,6-difluoro-3,5-dimethoxyphenyl)-9,9-dimethyl-3,6,7,9-tetrahydro-8H-pyrrolo[2,3-c]-2,7-naphthyridin-8-one], the IC50 in assay [1], in assay [2] and in assay [3] was below 100 nM throughout.

In the case of `COc1cc(OC)c(F)c(N2Cc3cnc4c(c3N(c3ccc(Cl)cc3F)C2=O)CC(=O)N4)c1F` [Example 68, 1-(4-chloro-2-fluorophenyl)-3-(2,6-difluoro-3,5-dimethoxyphenyl)-3,4,7,9-tetrahydro-1H-pyrrolo[3′,2′:5,6]pyrido[4,3-d]pyrimidine-2,8-dione], the IC50 in assay [1], in assay [2] and in assay [3] was below 100 nM each time.

Regarding `CCN1CCN(c2ccc(-c3n[nH]c4ncc5c(c34)N(C)C(=O)N(c3c(F)c(OC)cc(OC)c3F)C5)cc2)CC1` [Example 69, 3-(2,6-difluoro-3,5-dimethoxyphenyl)-9-[4-(4-ethylpiperazin-1-yl)phenyl]-1-methyl-1,3,4,7-tetrahydro-2H-pyrazolo[4′,3′:5,6]pyrido[4,3-d]pyrimidin-2-one], the IC50 in assay [1], in assay [2] and in assay [3] was below 100 nM each time.

Consider `CCN1CCN(Cc2cc3c4c(cnc3[nH]2)CN(c2c(F)c(OC)cc(OC)c2F)C(=O)N4C)CC1` [Example 70, 3-(2,6-difluoro-3,5-dimethoxyphenyl)-8-[(4-ethylpiperazin-1-yl)methyl]-1-methyl-1,3,4,7-tetrahydro-2H-pyrrolo[3′,2′:5,6]pyrido[4,3-d]pyrimidin-2-one], for which the IC50 in assay [1], in assay [2] and in assay [3] was below 100 nM throughout.
